Measurements from patent US12509460B2 (Skyhawk Therapeutics, Inc., priority 2019, dated 2025).

Assays:
[1] = tested on: mHTT protein in GM04724 (CAG 70/20) Huntington's disease patient lymphoblast cells; test: mHTT protein assay, 2B7-MW1 assay via Mesoscale Discovery (MSD); format: cell-based, human; conditions: GM04724 Huntington's disease patient lymphoblasts
Method in brief: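 Patient lymphoblasts treated 48 h with compound from 10 μM to 0.6 nM. mHTT quantified by MSD 2B7-MW1 immunoassay, whose signal depends on polyQ expansion and HTT size. Viability measured on a replicate plate by CellTiter Glo.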

[2] = Quantitative splicing assay (HTT), qPCR; format: cell-based, human; conditions: Homo sapiens, GM04724, 24 h, GM04724 lymphoblasts, qPCR, read-out: HTT Splicing: E49-50 EC50
Method in brief: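 Patient lymphoblasts (50,000 cells/well) dosed immediately after plating for 24 h at 2.5 uM to 0.15 nM in 0.1% DMSO. Lysed, cDNA made directly from cells, and inclusion of the intron 49 cryptic exon quantified by TaqMan qPCR.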

[3] = tested on: MDR1-MDCK cell monolayers; test: Blood-brain-barrier (BBB) penetration potential via MDCK-MDR1 permeability assay; conditions: for MDCK-MDR1: % Recov A-B: A-B direction; for MDCK-MDR1: % Recov B-A: B-A direction
Procedure: (§1) Example A13: Assessment of Blood-Brain-Barrier (BBB) Penetration Potential Via an MDCK-MDR1 Permeability Assay
(§2) The permeability of compounds is assessed for BBB penetration potential by use of an MDCK-MDR1 assay (Catalog EA203) performed by Absorption Systems, Exton PA.
(§3) Experimental Procedure: MDR1-MDCK cell monolayers are grown to confluence on collagen-coated, microporous membranes in 12-well assay plates. The permeability assay buffer is Hanks' balanced salt solution containing 10 mM HEPES and 15 mM glucose at a pH of 7.4. The buffer in the receiver chamber also contained 1% bovine serum albumin. The dosing solution concentration is 5 μM of test article in the assay buffer. Cell monolayers are dosed on the apical side (A-to-B) or basolateral side (B-to-A) and incubated at 37° C. with 5% CO2 in a humidified incubator. Samples are taken from the donor and receiver chambers at 120 minutes. Each determination is performed in duplicate. The flux of lucifer yellow is also measured post-experimentally for each monolayer to ensure no damage is inflicted to the cell monolayers during the flux period. All samples are assayed by LC-MS/MS using electrospray ionization.
(§4) The apparent permeability (Papp) and percent recovery are calculated as follows:
(§5) Analytical Method: Liquid Chromatography. Column: Waters ACQUITY UPLC BEH Phenyl 30 ×2.1 mm, 1.7 μm; M.P. Buffer. 25 mM ammonium formate buffer, pH 3.5; Aqueous Reservoir (A): 90% water, 10% buffer, Organic Reservoir (B): 90% acetonitrile, 10% buffer, Flow Rate: 0.7 mL/minute; Gradient Program:
(§6) • Total Run Time: 1.00 minute • Autosampler. 2 μL injection volume • Wash1: water/methanol/2-propanol:1/1/1; with 0.2% formic acid • Wash2: 0.1% formic acid in water • Brain Penetration • Potential Classification: A-B Papp≥3.0 and Efflux Ratio <3.0: High • A-B Papp≥3.0 and 10≥Efflux Ratio >3.0: Moderate • A-B Papp≥3.0 and Efflux Ratio≥10: Low • A-B Papp<3.0: Low

MDR1 = test: as above; conditions: dog, MDCK-MDR1, pH 7.4, MDCK-MDR1: Efflux, efflux ratio
Procedure: as §1, §2, §3, §4, §5, §6

MDR1 (P-gp) = test: as above; conditions: dog; for Papp A→B at 120 min, 5 μM: MDCK-MDR1, pH 7.4, MDCK-MDR1: Papp A-B, A-B direction; for Papp B→A at 120 min, 5 μM: MDCK-MDR1, pH 7.4, MDCK-MDR1: Papp B-A, B-A direction
Procedure: as §1, §2, §3, §4, §5, §6

[4] = tested on: SMN FL and SMN Δ7 in spinal muscular atrophy (SMA) patient fibroblasts (GM03813, Coriell); test: Quantitative splicing assay (SMN), qPCR; format: cell-based, human; conditions: Homo sapiens, Fibroblast, 24 h, SMA patient fibroblasts GM03813, 24 h, qPCR; read-out: SMN2 Splicing FL EC50
Procedure: Spinal muscular atrophy (SMA) patient fibroblasts (GM03813, Coriell) are plated in 96-well plates at 50,000 cells/well. […] Treated cells are lysed and cDNA synthesized using the Fast Advanced Cells-to-Ct kit (Thermofisher A35378) according to the manufacturer's instructions. 2 μL of each cDNA are used in qPCR reactions. […] Reactions are run in a Quant Studio 6 qPCR instrument with default settings.

[5] = tested on: SMN protein in spinal muscular atrophy (SMA) patient fibroblasts (GM03813, Coriell); test: SMN protein assay, Mesoscale Discovery (MSD); format: cell-based, human; conditions: SMA patient fibroblasts GM03813, 48 hours, MSD; read-out: SMN2 protein EC50
Method in brief: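 SMA patient fibroblasts (GM03813) seeded at 7000 cells/well and exposed to compound at 2.5 μM to 0.6 nM for 48 hours. Lysates assayed for SMN by MSD immunoassay, with absolute SMN amount calculated from a per-plate SMN standard curve (1 μg/ml to 19.5 pg/ml).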

SMILES | EC50 [1] [nM] | EC50 [2] [nM] | MDCK-MDR1: % Recov A-B [3] [%] | MDCK-MDR1: % Recov B-A [3] [%] | efflux ratio at 120 min, 5 μM (MDR1) | Papp A→B at 120 min, 5 μM (MDR1 (P-gp)) [×10⁻⁶ cm/s] | Papp B→A at 120 min, 5 μM (MDR1 (P-gp)) [×10⁻⁶ cm/s] | EC50 [4] [nM] | EC50 [5] [nM]
C#Cc1ccc(-c2ccc(N(C)[C@@H]3C[C@H]4CC[C@H](N4)[C@@H]3F)nn2)c(O)c1 [Compound 10A, 5-ethynyl-2-(6-(((1S,2S,3R,5R)-2-fluoro-8-azabicyclo[3.2.1]octan-3-yl)(methyl)amino)pyridazin-3-yl)phenol] | 0.01 to 15 | 0.01 to 15 | 55 | 67 | 2 | 11.6 | 19 | 0.01 to 15 | 0.01 to 15
C#Cc1ccc(-c2ccc(N(C)[C@H]3C[C@@H]4CC[C@@H](N4)[C@H]3F)nn2)c(O)c1 [Compound 10B, 5-ethynyl-2-(6-(((1R,2R,3S,5S)-2-fluoro-8-azabicyclo[3.2.1]octan-3-yl)(methyl)amino)pyridazin-3-yl)phenol] | 51 to 100 | 51 to 100 | 52 | 82 | 2 | 11.2 | 21.2 | 51 to 100 | 0.01 to 15
CN(c1ccc(-c2ccc(-n3ccnc3)cc2O)nn1)[C@H]1C[C@@H]2CCC[C@@H](N2)[C@H]1F [Compound 11B, 2-(6-(((1R,2R,3S,5S)-2-fluoro-9-azabicyclo[3.3.1]nonan-3-yl)(methyl)amino)pyridazin-3-yl)-5-(1H-imidazol-1-yl)phenol] | 0.01 to 15 | 0.01 to 15 | 77 | 89 | 23 | 2.4 | 55 | 0.01 to 15 | 16 to 50
CCN(c1ccc(-c2ccc(-c3cn[nH]c3)cc2O)nn1)[C@@H]1C[C@H]2CC[C@H](N2)[C@@H]1F [Compound 12A, 2-(6-(ethyl((1S,2S,3R,5R)-2-fluoro-8-azabicyclo[3.2.1]octan-3-yl)amino)pyridazin-3-yl)-5-(1H-pyrazol-4-yl)phenol] | 16 to 50 | 51 to 100 | 72 | 74 | 27 | 0.89 | 23.6 | 101 to 500 | 16 to 50
CCN(c1ccc(-c2ccc(-c3cn[nH]c3)cc2O)nn1)[C@H]1C[C@@H]2CC[C@@H](N2)[C@H]1F [Compound 12B, 2-(6-(ethyl((1R,2R,3S,5S)-2-fluoro-8-azabicyclo[3.2.1]octan-3-yl)amino)pyridazin-3-yl)-5-(1H-pyrazol-4-yl)phenol] | 0.01 to 15 | 0.01 to 15 | 57 | 52 | 43 | 0.7 | 30.1 | 0.01 to 15 | 0.01 to 15
CN(c1ccc(-c2ccc(-c3cnn(C)c3)cc2O)nn1)[C@@H]1C[C@H]2CCC[C@H](N2)[C@H]1F [Compound 14A, 2-(6-(((1S,2R,3R,5R)-2-fluoro-9-azabicyclo[3.3.1]nonan-3-yl)(methyl)amino)pyridazin-3-yl)-5-(1-methyl-1H-pyrazol-4-yl)phenol] | 16 to 50 | 16 to 50 | 59 | 83 | 14 | 3 | 42.4 | 51 to 100 | 0.01 to 15
CN(c1ccc(-c2ccc(-c3cnn(C)c3)cc2O)nn1)[C@H]1C[C@@H]2CCC[C@@H](N2)[C@@H]1F [Compound 14B, 2-(6-(((1R,2S,3S,5S)-2-fluoro-9-azabicyclo[3.3.1]nonan-3-yl)(methyl)amino)pyridazin-3-yl)-5-(1-methyl-1H-pyrazol-4-yl)phenol] | 0.01 to 15 | 0.01 to 15 | 54 | 91 | 11 | 2.95 | 32.1 | 51 to 100 | 0.01 to 15
Cc1cnc(-c2ccc(-c3ccc(N(C)[C@@H]4C[C@H]5CCC[C@H](N5)[C@@H]4F)nn3)c(O)c2)o1 [Compound 16A, 2-(6-(((1S,2S,3R,5R)-2-fluoro-9-azabicyclo[3.3.1]nonan-3-yl)(methyl)amino)pyridazin-3-yl)-5-(5-methyloxazol-2-yl)phenol] | 16 to 50 | 16 to 50 | 31 | 41 | 7 | 2.31 | 15.2 | 101 to 500 | 101 to 500
Cc1cnc(-c2ccc(-c3ccc(N(C)[C@H]4C[C@@H]5CCC[C@@H](N5)[C@H]4F)nn3)c(O)c2)o1 [Compound 16B, 2-(6-(((1R,2R,3S,5S)-2-fluoro-9-azabicyclo[3.3.1]nonan-3-yl)(methyl)amino)pyridazin-3-yl)-5-(5-methyloxazol-2-yl)phenol] | 16 to 50 | 0.01 to 15 | 24 | 26 | 16 | 1.16 | 18.7 | 16 to 50 | 0.01 to 15
CN(c1ccc(-c2cc(F)c(-c3ccoc(=O)c3)cc2O)nn1)[C@@H]1C[C@H]2CC[C@H](N2)[C@@H]1F [Compound 17A, 4-(2-fluoro-4-(6-(((1S,2S,3R,5R)-2-fluoro-8-azabicyclo[3.2.1]octan-3-yl)(methyl)amino)pyridazin-3-yl)-5-hydroxyphenyl)-2H-pyran-2-one] | 0.01 to 15 | 0.01 to 15 | 57 | 81 | 19 | 2.08 | 39.2 | 0.01 to 15 | 0.01 to 15
CN(c1ccc(-c2cc(F)c(-c3ccoc(=O)c3)cc2O)nn1)[C@H]1C[C@@H]2CC[C@@H](N2)[C@H]1F [Compound 17B, 4-(2-fluoro-4-(6-(((1R,2R,3S,5S)-2-fluoro-8-azabicyclo[3.2.1]octan-3-yl)(methyl)amino)pyridazin-3-yl)-5-hydroxyphenyl)-2H-pyran-2-one] | 16 to 50 | 16 to 50 | 62 | 79 | 19 | 1.91 | 36.8 | 51 to 100 | 16 to 50
CCc1cn(-c2ccc(-c3ccc(N(C)[C@@H]4C[C@H]5CC(F)(F)[C@@H](C4)N5)nn3)c(O)c2)cn1 [Compound 18A, 2-(6-(((1S,3R,5R)-6,6-difluoro-8-azabicyclo[3.2.1]octan-3-yl)(methyl)amino)pyridazin-3-yl)-5-(4-ethyl-1H-imidazol-1-yl)phenol] | 51 to 100 | 16 to 50 | 56 | 71 | 6 | 7 | 40.7 | 16 to 50 | 0.01 to 15
CN(c1ccc(-c2ccc(-c3ccccn3)cc2O)nn1)[C@H]1C[C@@H]2CCC[C@@H](N2)[C@H]1F [Compound 23B, 2-(6-(((1R,2R,3S,5S)-2-fluoro-9-azabicyclo[3.3.1]nonan-3-yl)(methyl)amino)pyridazin-3-yl)-5-(pyridin-2-yl)phenol] | 16 to 50 | 16 to 50 | 68 | 98 | 15 | 3.17 | 48.2 | 16 to 50 | 0.01 to 15
CN(c1ccc(-c2ccc(-c3cnccn3)cc2O)nn1)[C@@H]1C[C@H]2CCC[C@H](N2)[C@@H]1F [Compound 24A, 2-(6-(((1S,2S,3R,5R)-2-fluoro-9-azabicyclo[3.3.1]nonan-3-yl)(methyl)amino)pyridazin-3-yl)-5-(pyrazin-2-yl)phenol] | 51 to 100 | 51 to 100 | 79 | 90 | 13 | 4.73 | 61.3 | 101 to 500 | 0.01 to 15
